From US9382208B1, “Negative allosteric modulators of metabotropic glutamate receptor 2” (Vanderbilt University, priority 2015, dated 2016)

Biological target: T1, rat mGlu2 (Rattus norvegicus, UniProt P31421)
T1 construct: expressed in transfected cells
Assay: mGlu2 Ca2+ flux assay
Type: cell-based
Conditions: for IC50: Gα15 HEK293 cells stably expressing rat mGlu2, glutamate EC80 addition, read-out: rat mGlu2 IC50; for remaining activity at 30 µM: amplitude of response in the presence of 30 μM test compound as percentage of maximal response to glutamate, read-out: rat mGlu2 Glu max (%)
Experimental: Gα15 HEK293 cells stably expressing rat mGlu2 were plated in black-walled, clear-bottomed, poly-D-lysine coated 384-well plates in 20 μL of assay medium (DMEM containing 10% dialyzed FBS, 20 mM HEPES, and 1 mM sodium pyruvate) at a density of 12K cells/well. The cells were grown overnight at 37° C. in the presence of 5% CO2. The next day, medium was removed and the cells incubated with 20 μL of 2.3 μM Fluo-4, AM prepared as a 2.3 mM stock in DMSO and mixed in a 1:1 ratio with 10% (w/v) pluronic acid F-127 and diluted in assay buffer (Hank's balanced salt solution, 20 mM HEPES, and 2.5 mM probenecid) for 45 minutes at 37° C. Dye was removed, 20 μL of assay buffer was added, and the plate was incubated for 5 minutes at room temperature.
Ca^2+ flux was measured using the Functional Drug Screening System (FDSS7000, Hamamatsu, Japan). After establishment of a fluorescence baseline for about 3 seconds, the compounds of the present invention were added to the cells, and the response in cells was measured. 2.3 minutes later an EC20 concentration of the mGlu2 receptor agonist glutamate was added to the cells, and the response of the cells was measured for 1.9 minutes; an EC80 concentration of agonist was added and readings taken for an additional 1.7 minutes. All test compounds were dissolved and diluted to a concentration of 10 mM in 100% DMSO. Compounds were then serially diluted 1:3 in DMSO into 10 point concentration response curves, transferred to daughter plates, and further diluted into assay buffer to a 2× stock. Calcium fluorescence measures were recorded as fold over basal fluorescence; raw data was then normalized to the maximal response to glutamate. Antagonism of the agonist response of the mGlu2 receptor in the present invention was observed as a decrease in response to nearly maximal concentrations of glutamate in the presence of compound compared to the response to glutamate in the absence of compound.
The raw data file containing all time points was used as the data source in the analysis template. This was saved by the FDSS as a tab-delimited text file. Data were normalized using a static ratio function (F/F0) for each measurement of the total 360 values per well divided by each well's initial value. Data were then reduced to peak amplitudes (Max−Initial Min) using a time range that starts approximately 3 seconds prior to the glutamate EC80 addition and continues for approximately 90 seconds. This is sufficient time to capture the peak amplitude of the cellular calcium response. Individual amplitudes were expressed as % ECMax by multiplying each amplitude by 100 and then dividing the product by the mean of the amplitudes derived from the glutamate ECMax-treated wells. IC50 values for test compounds were generated by fitting the normalized values versus the log of the test compound concentration (in mol/L) using a 4 parameter logistic equation where none of the parameters were fixed. Each of the three values collected at each concentration of test compound were weighted evenly.
For NAMs, potency (IC50) and maximum response (% Glu Max), i.e. the amplitude of response in the presence of 30 μM test compound as a percentage of the maximal response to glutamate, are reported. […] Compounds with no measurable activity are designated as “>30,000 nM” since the top concentration of compound tested in the assay is 30 μM.

T1 sequence (P31421 19-872): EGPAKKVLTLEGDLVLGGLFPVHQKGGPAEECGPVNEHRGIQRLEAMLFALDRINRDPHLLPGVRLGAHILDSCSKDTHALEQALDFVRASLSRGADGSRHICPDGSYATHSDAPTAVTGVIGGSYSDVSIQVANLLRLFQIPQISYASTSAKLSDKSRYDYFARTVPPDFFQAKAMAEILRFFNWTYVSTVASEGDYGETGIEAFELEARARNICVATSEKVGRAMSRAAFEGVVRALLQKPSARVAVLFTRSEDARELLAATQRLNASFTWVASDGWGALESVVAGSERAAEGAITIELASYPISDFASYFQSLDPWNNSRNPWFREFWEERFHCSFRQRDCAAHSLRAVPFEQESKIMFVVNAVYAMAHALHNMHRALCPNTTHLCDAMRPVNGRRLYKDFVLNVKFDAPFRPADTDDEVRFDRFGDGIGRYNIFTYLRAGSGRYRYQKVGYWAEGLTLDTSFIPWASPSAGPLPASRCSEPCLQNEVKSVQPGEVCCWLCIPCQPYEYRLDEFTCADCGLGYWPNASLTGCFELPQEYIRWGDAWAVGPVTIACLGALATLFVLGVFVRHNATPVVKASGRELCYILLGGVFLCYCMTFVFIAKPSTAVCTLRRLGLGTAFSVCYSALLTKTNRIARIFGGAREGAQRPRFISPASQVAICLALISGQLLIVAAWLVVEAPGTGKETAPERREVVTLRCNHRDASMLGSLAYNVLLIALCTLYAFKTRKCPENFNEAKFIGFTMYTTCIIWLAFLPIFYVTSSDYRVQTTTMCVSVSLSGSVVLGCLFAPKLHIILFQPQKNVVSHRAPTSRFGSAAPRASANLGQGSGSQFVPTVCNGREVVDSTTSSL

IC50 [nM] | remaining activity at 30 µM [%] | Compound
429 | 1.81 | NC(=O)c1cn(-c2ccc(F)cc2)c2ccc(N3CCCC3c3cccnc3)cc2c1=O (stereo not shown) [Compound 40, 1-(4-fluorophenyl)-4-oxo-6-(2-(pyridin-3-yl)pyrrolidin-1-yl)-1,4-dihydroquinoline-3-carboxamide]
1770 | 5.78 | NC(=O)c1cn(-c2ccc(F)cc2)c2c(F)cc(CN3CCC(F)(F)CC3)cc2c1=O [Compound 94, 6-((4,4-difluoropiperidin-1-yl)methyl)-8-fluoro-1-(4-fluorophenyl)-4-oxo-1,4-dihydroquinoline-3-carboxamide]
4480 | 15.7 | Cc1ncc(Oc2ccc3c(c2)c(=O)c(C(N)=O)cn3-c2ccc(F)cc2)cn1 [Compound 57, 1-(4-fluorophenyl)-6-((2-methylpyrimidin-5-yl)oxy)-4-oxo-1,4-dihydroquinoline-3-carboxamide]
492 ± 97 | 1.88 ± 0.38 | NC(=O)c1cn(-c2ccc(F)cc2)c2ccc(CCc3ccncc3)cc2c1=O [Compound 9, 1-(4-fluorophenyl)-4-oxo-6-(2-(pyridin-4-yl)ethyl)-1,4-dihydroquinoline-3-carboxamide]
202 ± 14 | 2.39 ± 0.13 | CN(Cc1cccnc1)c1ccc2c(c1)c(=O)c(C(N)=O)cn2-c1ccc(F)cc1 [Compound 12, 1-(4-fluorophenyl)-6-(methyl(pyridin-3-ylmethyl)amino)-4-oxo-1,4-dihydroquinoline-3-carboxamide]
1080 | 1.67 | NC(=O)c1cn(-c2ccc(F)cc2)c2ccc(OCc3cccnc3)cc2c1=O [Compound 44, 1-(4-fluorophenyl)-4-oxo-6-(pyridin-3-ylmethoxy)-1,4-dihydroquinoline-3-carboxamide]
252 | 1.15 | COc1ccc(-n2cc(C(N)=O)c(=O)c3cc(CCc4cnc(C)nc4)ccc32)cc1F [Compound 14, 1-(3-fluoro-4-methoxyphenyl)-6-(2-(2-methylpyrimidin-5-yl)ethyl)-4-oxo-1,4-dihydroquinoline-3-carboxamide]
544 | 0.41 | Cn1cc(-c2ccc3c(c2)c(=O)c(C(N)=O)cn3-c2ccc(F)cc2)cn1 [Compound 61, 1-(4-fluorophenyl)-6-(1-methyl-1H-pyrazol-4-yl)-4-oxo-1,4-dihydroquinoline-3-carboxamide]
222 ± 36 | 1.42 ± 0.51 | C[C@@H]1CN(Cc2ccc3c(c2)c(=O)c(C(N)=O)cn3-c2ccc(F)cc2)C[C@H](C)O1 [Compound 64, 6-((cis-2,6-Dimethylmorpholino)methyl)-1-(4-fluorophenyl)-4-oxo-1,4-dihydroquinoline-3-carboxamide]
843 | 1.92 | Cc1ncc(COc2ccc3c(c2)c(=O)c(C(N)=O)cn3-c2ccc(F)cc2)cn1 [Compound 29, 1-(4-fluorophenyl)-6-((2-methylpyrimidin-5-yl)methoxy)-4-oxo-1,4-dihydroquinoline-3-carboxamide]
482 ± 87 | 1.9 ± 0.11 | NC(=O)c1cn(-c2ccc(F)cc2)c2ccc(CCc3cccnc3)cc2c1=O [Compound 10, 1-(4-fluorophenyl)-4-oxo-6-(2-(pyridin-3-yl)ethyl)-1,4-dihydroquinoline-3-carboxamide]
421 | 2.18 | Cc1cc(OCc2ccc3c(c2)c(=O)c(C(N)=O)cn3-c2ccc(F)cc2)ccn1 [Compound 33, 1-(4-fluorophenyl)-6-(((2-methylpyridin-4-yl)oxy)methyl)-4-oxo-1,4-dihydroquinoline-3-carboxamide]
444 | 1.91 | NC(=O)c1cn(-c2ccc(F)cc2)c2ccc(NCCc3ccncc3)cc2c1=O [Compound 26, 1-(4-fluorophenyl)-4-oxo-6-((2-(pyridin-4-yl)ethyl)amino)-1,4-dihydroquinoline-3-carboxamide]
269 | 0.78 | NC(=O)c1cn(-c2ccc(F)cc2)c2ccc(CCc3ccnc(C(F)(F)F)c3)cc2c1=O [Compound 46, 1-(4-fluorophenyl)-4-oxo-6-(2-(2-(trifluoromethyl)pyridin-4-yl)ethyl)-1,4-dihydroquinoline-3-carboxamide]
422 ± 94 | 1.09 ± 0.16 | Cc1cc(COc2ccc3c(c2)c(=O)c(C(N)=O)cn3-c2ccc(F)cc2)ccn1 [Compound 24, 1-(4-fluorophenyl)-6-((2-methylpyridin-4-yl)methoxy)-4-oxo-1,4-dihydroquinoline-3-carboxamide]
753 | 1.19 | NC(=O)c1cn(-c2ccc(F)cc2)c2ccc(CN3CCN(CC(F)(F)F)CC3)cc2c1=O [Compound 81, 1-(4-fluorophenyl)-4-oxo-6-((4-(2,2,2-trifluoroethyl)piperazin-1-yl)methyl)-1,4-dihydroquinoline-3-carboxamide]
1550 | 1.21 | NC(=O)c1cn(-c2ccc(F)cc2)c2ccc(CCc3ccc(C(F)(F)F)nc3)cc2c1=O [Compound 47, 1-(4-fluorophenyl)-4-oxo-6-(2-(6-(trifluoromethyl)pyridin-3-yl)ethyl)-1,4-dihydroquinoline-3-carboxamide]
440 ± 97 | 1.52 ± 0.63 | NC(=O)c1cn(-c2ccc(F)cc2)c2ccc(CN3CCSCC3)cc2c1=O [Compound 2, 1-(4-fluorophenyl)-4-oxo-6-(thiomorpholinomethyl)-1,4-dihydroquinoline-3-carboxamide]
659 | 1.04 | NC(=O)c1cn(-c2ccc(F)cc2)c2ccc(NCC3CCOCC3)cc2c1=O [Compound 53, 1-(4-fluorophenyl)-4-oxo-6-(((tetrahydro-2H-pyran-4-yl)methyl)amino)-1,4-dihydroquinoline-3-carboxamide]
823 | 1.41 | NC(=O)c1cn(-c2ccc(F)cc2)c2ccc(CN3CCC(C(F)(F)F)CC3)cc2c1=O [Compound 77, 1-(4-fluorophenyl)-4-oxo-6-((4-(trifluoromethyl)piperidin-1-yl)methyl)-1,4-dihydroquinoline-3-carboxamide]
> 10000 | 18.7 | Cc1ccccc1CCc1ccc2c(c1)c(=O)c(C(N)=O)cn2-c1ccc(F)cc1 [Compound 8, 1-(4-fluorophenyl)-6-(2-methylphenethyl)-4-oxo-1,4-dihydroquinoline-3-carboxamide]
1160 | 2.04 | NC(=O)c1cn(-c2ccc(F)cc2)c2ccc(CN3CCS(=O)(=O)CC3)cc2c1=O [Compound 84, 6-((1,1-dioxidothiomorpholino)methyl)-1-(4-fluorophenyl)-4-oxo-1,4-dihydroquinoline-3-carboxamide]
391 | 1.75 | NC(=O)c1cn(-c2ccc(F)cc2)c2ccc(NCCc3cccnc3)cc2c1=O [Compound 27, 1-(4-fluorophenyl)-4-oxo-6-((2-(pyridin-3-yl)ethyl)amino)-1,4-dihydroquinoline-3-carboxamide]
2110 | 0.44 | NC(=O)c1cn(-c2ccc(F)cc2)c2ccc(Oc3cncc(F)c3)cc2c1=O [Compound 59, 1-(4-fluorophenyl)-6-((5-fluoropyridin-3-yl)oxy)-4-oxo-1,4-dihydroquinoline-3-carboxamide]
1120 | 1.29 | CS(=O)(=O)C1CCN(Cc2ccc3c(c2)c(=O)c(C(N)=O)cn3-c2ccc(F)cc2)CC1 [Compound 76, 1-(4-fluorophenyl)-6-((4-(methylsulfonyl)piperidin-1-yl)methyl)-4-oxo-1,4-dihydroquinoline-3-carboxamide]
2020 | 1.93 | NC(=O)c1cn(-c2ccc(F)cc2)c2ccc(CN3CC4(C3)CC(F)(F)C4)cc2c1=O [Compound 65, 6-((6,6-difluoro-2-azaspiro[3.3]heptan-2-yl)methyl)-1-(4-fluorophenyl)-4-oxo-1,4-dihydroquinoline-3-carboxamide]
